According to US20240423948A1, “5-HYDROXYMETHYLFURFURAL FOR THE TREATMENT OF MITOCHONDRIAL DYSFUNCTION” (D-CAP LLC, priority 2021, published 2024):

Tests used:
Type in all cases: cell-based, murine
[1] = tested on: Hepa1-6 cell line; assay: ATP content (CellTiter-Glo Assay); conditions: for ATP levels: single agent, 24 h, lower (0.1-100 μM) and higher dose range, FIG. 1A and 1D
Method: Cell culture: The Hepa1-6 cell line (#CRL-1830, ATCC) was cultured in DMEM culture medium containing 1 g/L glucose, 10% fetal bovine serum, 2 mM glutamine, 100 U/mL Penicillin and 100 μg/mL Streptomycin and 30 μM oleic acid. Cells were seeded at a density of 20 000 cells per well in 96 well plates and incubated for overnight to allow the cells to attach at 37° C. with 5% CO2. Cells were then supplemented with the test substances at indicated concentrations and incubated for indicated time periods (24 h). For all assays the test substances were diluted in 10% DMSO/PBS further diluted with culture medium and added to the cells at the indicated concentrations with a final DMSO concentration of 0.01%. Vehicle controls were treated with 0.01% DMSO. ATP content: Cells were treated for 24 h with the test substances at the indicated concentrations. The cellular ATP content was assessed using the CellTiter-Glo Assay (#G7571, Promega) as per the manufacturer's instructions. Luminescence was detected in a plate reader spectrophotometer. The results were normalized to the luminescence intensity measured in vehicle treated cells and positive controls treated with 0.1% Triton-X, as well as 10 μM FCCP and 1 μM oligomycin. Flat, white bottom plate.

[2] = tested on: Hepa1-6 cell line; assay: Cytotoxicity (CyQuant LDH Cytotoxicity Assay); conditions: single agent, 24 h, lower and higher dose range, FIG. 1C and 1F
Method: Cells were seeded at a density of 20 000 cells per well in 96 well plates and incubated for overnight to allow the cells to attach at 37° C. with 5% CO2. Cells were then supplemented with the test substances at indicated concentrations and incubated for indicated time periods (24 h). For all assays the test substances were diluted in 10% DMSO/PBS further diluted with culture medium and added to the cells at the indicated concentrations with a final DMSO concentration of 0.01%. Vehicle controls were treated with 0.01% DMSO. Cytotoxicity: Cytotoxicity was assessed using the CyQuant™ LDH Cytotoxicity Assay Kit (#C20300/C20301, Thermo Fisher). After cells were cultured with the test substances for 24 h, 50 μL of the cell culture medium were transferred to a new 96 well plate and the cytotoxicity assay was performed as per the manufacturer's instructions. Absorbance was measured at 490 nm and background at 680 nm. The signal intensity of untreated cells was considered as the background signal of spontaneous LDH release and subtracted from all measurements. Cytotoxicity was expressed as the percentage of maximum signal intensity observed in freshly lysed cells. Flat, clear plate. 10 μM FCCP, 1 μM oligomycin, 0.1% Triton X as positive control.

[3] = tested on: Hepa1-6 cell line; assay: Mitochondrial reactive oxygen species (MitoSOX Red); conditions: for MitoSOX levels: 24 h
Method: Cell culture: The Hepa1-6 cell line (#CRL-1830, ATCC) was cultured in DMEM culture medium containing 1 g/L glucose, 10% fetal bovine serum, 2 mM glutamine, 100 U/mL Penicillin and 100 μg/mL Streptomycin and 30 μM oleic acid. Cells were seeded at a density of 20 000 cells per well in 96 well plates and incubated for overnight to allow the cells to attach at 37° C. with 5% CO2. Cells were then supplemented with the test substances at indicated concentrations and incubated for indicated time periods (24 h). For all assays the test substances were diluted in 10% DMSO/PBS further diluted with culture medium and added to the cells at the indicated concentrations with a final DMSO concentration of 0.01%. Vehicle controls were treated with 0.01% DMSO. Mitochondrial reactive oxygen species (ROS); Cells were treated for 24 h with the test substances at the indicated concentration, as well as positive (10 μM FCCP and 1 μM oligomycin) and negative control. Mitochondrial ROS was detected using MitoSOX™ Red mitochondrial superoxide indicator (#M36008, Invitrogen/Thermo Fisher Scientific). After 24 h treatment of the substances, cells were washed with 100 μl assay buffer (DMEM without phenol red with 4 mM L-glutamine, 4.5 g/L glucose and 1 mM Na-Pyruvate, pH7.4) three times, and 100 μl of […] MitoSOX Red (5 mM MitoSOX™ Red stock solution prepared as indicated by the manufacturer's instruction diluted in 1:2 500 in assay buffer) was added per well, followed by incubation for 30min at 37° C. with 5% CO2. After the incubation cells were washed with 100 μl assay buffer and 100 μl assay buffer was added per well. Fluorescence was measured at excitation 510 nm and emission 580 nm. Use flat, black bottom plates were used.

[4] = single agent, lower and higher dose range, FIG. 1B and 1E

| Compound | ATP levels [1] | cytotoxicity (LDH) [2] | MitoSOX levels [3, 4] | effect on mitochondrial function (ATP levels) compared with metformin ([1]; FIG. 1 legend, overall) | effect on mitochondrial function (ATP levels) compared with metformin ([1]; lower dose range (physiological doses of Metformin), FIG. 1A) | effect on mitochondrial function (mitochondrial ROS levels) compared with metformin ([3]; FIG. 1 legend, overall) | effect on mitochondrial function (MitoSOX) compared with Metformin ([3]; lower dose range (physiological doses of Metformin), FIG. 1B) | MitoSOX levels ([3]; positive control, 1 μM oligomycin) |
| --- | --- | --- | --- | --- | --- | --- | --- | --- |
| CN(C)C(=N)N=C(N)N [Metformin, reference compound] | ATP reduction | without cytotoxic effects | trend of slight increase of MitoSOX levels |  |  |  |  |  |
| O=Cc1ccc(CO)o1 [5-HMF, 5-Hydroxymethylfurfural] | ATP reduction | without cytotoxic effects | trend of slight increase of MitoSOX levels | comparable to that of metformin | milder than that of Metformin | comparable to that of metformin | milder than that of Metformin |  |
| CC[C@H]1/C=C/C=C/C[C@@H](C)[C@H](O)[C@@](C)(O)C(=O)[C@@H](C)[C@H](O)[C@@H](C)C(=O)[C@@H](C)[C@H](O)[C@@H](C)/C=C/C(=O)O[C@@H]2[C@H](C)[C@H](CC1)O[C@]1(CC[C@H](C)[C@H](C[C@@H](C)O)O1)[C@H]2C [oligomycin, reference compound] |  |  |  |  |  |  |  | no statistically significance |
